Series [1] relates to SK-N-MC cells. In words: MTT survival assay on SK-N-MC brain cancer cells. It counts as cell-based. The following applies: Homo sapiens, 48 hours. As to the method: The NCI anti-cancer drug screen model was adopted to test anti-cancer effect of the exemplary compounds from Example 1. The isolated compound 1 from Example 1 was added into the culture media of brain-cancer cells, SK-N-MC, to test for tumor cell survival by MTT assay.
(§1) MTT assay is commonly used to determine cell proliferation, percent of viable cells, and cytotoxicity. MTT (3-[4,5-dimethylthiazol-2-yl]2,5-diphenyltetrazolium bromide) is a yellow dye, which can be absorbed by the living cells and be reduced to purplish blue formazan crystals by succinate tetrazolium reductase in mitochondria. Formazan formation can therefore be used to assess and determine the survival rate of cells.
SK-N-MC cells were suspended and cultured in 10% fetal bovine serum (Life Technologies Inc.) culture medium containing 1% penicillin and 1% streptomycin. The cells were incubated under 5% CO2, 37° C. for 24 hours. After cell proliferation, the cells were washed once with PBS, treated with the trypsin-EDTA, and then centrifuged at 1,200 rpm for 5 minutes to separate cells from supernatant. The cells were re-suspended in fresh culture medium (10 mL) and placed in 96 well plates.
(§2) To each of the 96 well plates containing SK-N-MC, 0.003, 0.01, 0.03, 0.1, and 0.3 μg/ml of compound 1 were add. The 96 well plates were incubated at 37° C., 5% CO2 for 48 hours. Subsequently, in the dark environment to each well of the plates were added 2.5 mg/ml of MTT. The reaction was terminated by addition of 100 μl of lysis buffer after 4 hours. The survival rate of cells was calculated based on the measurement of absorption at the 570 nm wavelength by enzyme immunoassay analyzer. The half maximal inhibitory concentration (IC50) values of compound 1 on SK-N-MC was 0.05 μg/mL. Similarly, another exemplary cancer cell lines, U373MG, were used.

Series [2] has as its system U373MG. Nature of the series: MTT survival assay on U373MG cancer cells. Conditions: Homo sapiens, U373 MG, read-out: half maximal inhibitory concentration (IC50). It counts as cell-based.
Text: as §1, §2

Series [3] is described as follows: Determination of Compound 1 in mice brain by LC/MS/MS. It counts as in vivo. The following applies: male CD-1 mice fed 1 mg/g in 0.5% methylcellulose, brain removed after 15 minute; individual brains 1-3. The method, then: The concentration of compound 1 in brain samples was analyzed by LC/MS/MS spectrometer. Experiments were performed on male CD-1 derived mice weighing 24±2 g (Biolasco Taiwan). The CD-1 mice were fed with 1 mg/g Compound 1 in 0.5% methylcellulose (concentration is 2 mg/mL). The brains of the CD-1 mice were removed after 15 minute and extracted with CH3CN and then centrifuged to prepare supernatant that was analyzed by LC/MS/MS.

The term viability denotes a read-out of living cells in per cent, often relative to untreated cells.

Converted amounts (≈) assume the structure as drawn. “And” between values parts separate entries of the source, which are not always exact repeats. Identical values can stand only once.

Consider `COC1=C(OC)C(O)C(C/C=C(\C)CC/C=C(\C)CCC=C(C)C)C(C)C1=O` (centres unmarked) [Compound 1, 4-hydroxy-2,3-dimethoxy-6-methyl-5-(3,7,11-trimethyldodeca-2,6,10-trienyl)cyclohex-2-enone], for which the viability at 0.003 µg/mL in series [1] (0.003 μg/ml, read-out: Cell viability rate mean) stood at 86.3%. Further, in series [1] (0.01 μg/ml, read-out: Cell viability rate mean), the viability at 0.01 µg/mL was 76.6%. The viability at 0.03 µg/mL in series [1] (0.03 μg/ml, read-out: Cell viability rate mean) was 63.2%. In addition, the viability at 0.1 µg/mL in series [1] (0.1 μg/ml, read-out: Cell viability rate mean) was 32.9%. The viability at 0.3 µg/mL in series [1] (0.3 μg/ml, read-out: Cell viability rate mean) stood at 23%. The results for the IC50 in series [1] (read-out: half maximal inhibitory concentration (IC50)) and in series [2] were 0.05 µg/mL (≈ 0.128 µM) and 5.88 µg/mL (≈ 15.1 µM), respectively. Also, in series [3], the Brain concentration is 30.13 µg/g and 7.59 µg/g and 24.28 µg/g.

The values above are taken from patent US20130158113A1, “METHODS AND COMPOSITIONS FOR TREATING BRAIN CANCER” (Golden Biotechnology Corporation, priority 2011, published 2013).
